# Assay results from PMC7345905, “Microbial Metabolite Urolithin B Inhibits Recombinant Human Monoamine Oxidase A Enzyme” (Metabolites, 2020).
# “And” between values parts separate entries of the source, which are not always exact repeats. Identical values can stand only once.
# What was measured:
# human recombinant MAO-B = target: T1, human recombinant MAO-B (Homo sapiens, UniProt P27338); assay: MAO-Glo MAO-B inhibition assay; type: biochemical; details: N=1-3, listed as UroB
# T1 construct: purchased Sigma-Aldrich
# T1 sequence (P27338 1-520): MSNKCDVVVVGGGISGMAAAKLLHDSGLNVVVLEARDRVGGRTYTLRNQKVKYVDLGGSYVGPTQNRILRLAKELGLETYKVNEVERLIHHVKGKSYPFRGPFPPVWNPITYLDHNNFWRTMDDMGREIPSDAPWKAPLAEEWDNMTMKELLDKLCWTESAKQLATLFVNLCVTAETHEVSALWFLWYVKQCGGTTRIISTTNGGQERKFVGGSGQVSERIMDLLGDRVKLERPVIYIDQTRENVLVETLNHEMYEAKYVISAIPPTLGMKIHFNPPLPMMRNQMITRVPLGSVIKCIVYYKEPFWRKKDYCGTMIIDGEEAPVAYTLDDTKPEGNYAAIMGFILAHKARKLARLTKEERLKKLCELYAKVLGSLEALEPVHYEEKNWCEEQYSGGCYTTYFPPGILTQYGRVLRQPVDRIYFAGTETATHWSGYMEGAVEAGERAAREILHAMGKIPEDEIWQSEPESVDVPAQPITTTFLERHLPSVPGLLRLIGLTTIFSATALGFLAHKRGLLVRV
# Experimental: (§1) MAO inhibition assays were performed using a MAO-Glo™ Assay kit (Promega) according to the manufacturer’s instructions. Briefly, 1 µg of human recombinant MAO-A and MAO-B enzyme isoforms were incubated with 160 and 16 µM of MAO substrates, respectively. […] The enzyme reaction was quenched by the addition of a luciferin detection reagent. […] An equal volume of dimethyl sulfoxide (0.1%) was added to the enzyme assay as a control. After 1 h of incubation, the luminescence was measured with a multimode microplate reader (Synergy HT, BioTek, Winooski, VT, USA) to determine the MAO enzyme activities. Initially, the inhibition potential of all the test compounds was evaluated at a concentration of 100 μM. The control reaction (with no inhibitor) with vehicle (DMSO 0.1%) was set at 100% activity. To determine IC50 of the test compounds, the dose dependent enzyme assays were performed. We used range of 0.1 to 50 μM concentrations for MAO-A and 0.1 to 200 μM concentrations of test compounds for the MAO-B enzyme activities. The type of enzyme inhibition was determined using variable concentrations of MAO-A substrate (10–360 µM) and MAO-B substrate (2–64 µM) for the respective enzyme assay. […] A Lineweaver–Burk double reciprocal plot was generated, and the mode of inhibition was determined by visual examination of the plot. The slope of the reciprocal plots was plotted against the inhibitor concentrations and determined the x-axis intercept that represented the inhibitor constant, Ki value.
# human recombinant MAO-A = target: T2, human recombinant MAO-A (Homo sapiens, UniProt P21397); assay: MAO-A inhibition kinetics (variable substrate, Lineweaver–Burk plot); type: biochemical; parameters: Michaelis-Menten best-fit Vmax of MAO-A / Michaelis-Menten best-fit Vmax of MAO-A, Average: unit not given here; details: for MAO-A assay signal (luminescence) / Transformed (reciprocal of MAO-A assay signal) / Michaelis-Menten best-fit Vmax of MAO-A: N=1-3
# T2 construct: purchased Sigma-Aldrich
# T2 sequence (P21397 1-527): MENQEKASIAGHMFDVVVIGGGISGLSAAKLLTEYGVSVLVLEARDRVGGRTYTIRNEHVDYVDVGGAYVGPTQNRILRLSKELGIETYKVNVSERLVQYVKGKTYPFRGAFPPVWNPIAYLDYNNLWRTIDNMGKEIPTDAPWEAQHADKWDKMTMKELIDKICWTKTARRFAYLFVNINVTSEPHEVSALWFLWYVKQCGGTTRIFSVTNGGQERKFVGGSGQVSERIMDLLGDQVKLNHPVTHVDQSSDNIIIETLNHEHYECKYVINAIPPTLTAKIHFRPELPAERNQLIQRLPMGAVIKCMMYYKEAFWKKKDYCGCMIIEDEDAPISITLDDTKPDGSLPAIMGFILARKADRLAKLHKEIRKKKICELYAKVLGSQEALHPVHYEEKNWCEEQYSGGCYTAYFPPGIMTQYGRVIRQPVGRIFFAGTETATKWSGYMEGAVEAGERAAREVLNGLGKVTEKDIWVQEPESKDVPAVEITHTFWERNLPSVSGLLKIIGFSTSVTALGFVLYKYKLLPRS
# Experimental: as §1
# All experiments were performed in triplicates and data are presented as mean ± standard error of the mean (SEM). The raw data are provided in Supplementary Data, Table S1. Enzyme kinetic data were analyzed using the Lineweaver–Burk plot. Statistical analysis was performed by Student’s t-test using GraphPad Prism Ver. 7.0 (GraphPad Prism Software Inc., San Diego, CA, USA).
# [1] = UroB 0.4 µM, MAO-A substrate 10 uM
# [2] = UroB 0.4 µM, MAO-A substrate 20 uM
# [3] = UroB 0.4 µM, MAO-A substrate 40 uM
# [4] = UroB 0.4 µM, MAO-A substrate 80 uM
# [5] = UroB 0.4 µM, MAO-A substrate 160 uM
# [6] = UroB 0.4 µM, MAO-A substrate 320 uM
# [7] = UroB 2 µM, MAO-A substrate 10 uM
# [8] = UroB 2 µM, MAO-A substrate 20 uM
# [9] = UroB 2 µM, MAO-A substrate 40 uM
# [10] = UroB 2 µM, MAO-A substrate 80 uM
# [11] = UroB 2 µM, MAO-A substrate 160 uM
# [12] = UroB 2 µM, MAO-A substrate 320 uM
smiles,measurement,setting,value
"O=c1oc2cc(O)ccc2c2ccccc12 [UB, urolithin-B]","MAO-B enzyme assay, Percent of control",human recombinant MAO-B; 0.1 µM,107.968% of control and 101.629% of control and 95.3271% of control
same,"MAO-B enzyme assay, Percent of control",human recombinant MAO-B; 1 µM,109.561% of control and 99.5806% of control and 93.6856% of control
same,"MAO-B enzyme assay, Percent of control",human recombinant MAO-B; 10 µM,97.6995% of control and 92.8109% of control and 92.0441% of control
same,"MAO-B enzyme assay, Percent of control",human recombinant MAO-B; 25 µM,95.5787% of control and 94.7999% of control and 85.3343% of control
same,"MAO-B enzyme assay, Percent of control",human recombinant MAO-B; 50 µM,93.9851% of control and 85.8855% of control and 84.5675% of control
same,"MAO-B enzyme assay, Percent of control","human recombinant MAO-B; 100 µM (Figure 1C), 100 µM",92.2554% of control and 86.0762% of control and 81.4109% of control
same,"MAO-B enzyme assay, Percent of control",human recombinant MAO-B; 100 µM,74.6465% of control and 81.8955% of control and 81.8476% of control
same,"MAO-B enzyme assay, Percent of control",human recombinant MAO-B; 200 µM,35.5859% of control and 42.116% of control and 26.5397% of control
same,mode of inhibition of MAO-A,human recombinant MAO-A; Lineweaver–Burk plot,mixed mode of inhibition
same,"MAO-A assay signal (luminescence), Average",human recombinant MAO-A; [1],1545
same,MAO-A assay signal (luminescence),human recombinant MAO-A; [1],1603 and 1392 and 1640
same,"MAO-A assay signal (luminescence), Average",human recombinant MAO-A; [2],2811.33
same,MAO-A assay signal (luminescence),human recombinant MAO-A; [2],2815 and 2835 and 2784
same,"MAO-A assay signal (luminescence), Average",human recombinant MAO-A; [3],5085
same,MAO-A assay signal (luminescence),human recombinant MAO-A; [3],5099 and 4835 and 5321
same,"MAO-A assay signal (luminescence), Average",human recombinant MAO-A; [4],9642.33
same,MAO-A assay signal (luminescence),human recombinant MAO-A; [4],9741 and 9698 and 9488
same,"MAO-A assay signal (luminescence), Average",human recombinant MAO-A; [5],17162.3
same,MAO-A assay signal (luminescence),human recombinant MAO-A; [5],17107 and 16984 and 17396
same,"MAO-A assay signal (luminescence), Average",human recombinant MAO-A; [6],26885
same,MAO-A assay signal (luminescence),human recombinant MAO-A; [6],27251 and 26905 and 26499
same,"Transformed (reciprocal of MAO-A assay signal), Average","human recombinant MAO-A; UroB 0.4 µM, [1/S] 0.003125",3.72e-5
same,Transformed (reciprocal of MAO-A assay signal),"human recombinant MAO-A; UroB 0.4 µM, [1/S] 0.003125",3.67e-5 and 3.717e-5 and 3.774e-5
same,"Transformed (reciprocal of MAO-A assay signal), Average","human recombinant MAO-A; UroB 0.4 µM, [1/S] 0.00625",5.827e-5
same,Transformed (reciprocal of MAO-A assay signal),"human recombinant MAO-A; UroB 0.4 µM, [1/S] 0.00625",5.846e-5 and 5.888e-5 and 5.748e-5
same,"Transformed (reciprocal of MAO-A assay signal), Average","human recombinant MAO-A; UroB 0.4 µM, [1/S] 0.0125",0.0001037
same,Transformed (reciprocal of MAO-A assay signal),"human recombinant MAO-A; UroB 0.4 µM, [1/S] 0.0125",0.0001027 and 0.0001031 and 0.0001054
same,"Transformed (reciprocal of MAO-A assay signal), Average","human recombinant MAO-A; UroB 0.4 µM, [1/S] 0.025",0.0001967
same,Transformed (reciprocal of MAO-A assay signal),"human recombinant MAO-A; UroB 0.4 µM, [1/S] 0.025",0.0001961 and 0.0002068 and 0.0001879
same,"Transformed (reciprocal of MAO-A assay signal), Average","human recombinant MAO-A; UroB 0.4 µM, [1/S] 0.05",0.0003557
same,Transformed (reciprocal of MAO-A assay signal),"human recombinant MAO-A; UroB 0.4 µM, [1/S] 0.05",0.0003552 and 0.0003527 and 0.0003592
same,"Transformed (reciprocal of MAO-A assay signal), Average","human recombinant MAO-A; UroB 0.4 µM, [1/S] 0.1",0.0006472
same,Transformed (reciprocal of MAO-A assay signal),"human recombinant MAO-A; UroB 0.4 µM, [1/S] 0.1",0.0006238 and 0.0007184 and 0.0006098
same,"MAO-A assay signal (luminescence), Average",human recombinant MAO-A; [7],917
same,MAO-A assay signal (luminescence),human recombinant MAO-A; [7],965 and 892 and 894
same,"MAO-A assay signal (luminescence), Average",human recombinant MAO-A; [8],1607
same,MAO-A assay signal (luminescence),human recombinant MAO-A; [8],1578 and 1604 and 1639
same,"MAO-A assay signal (luminescence), Average",human recombinant MAO-A; [9],2957.33
same,MAO-A assay signal (luminescence),human recombinant MAO-A; [9],3058 and 2874 and 2940
same,"MAO-A assay signal (luminescence), Average",human recombinant MAO-A; [10],5505.33
same,MAO-A assay signal (luminescence),human recombinant MAO-A; [10],5631 and 5490 and 5395
same,"MAO-A assay signal (luminescence), Average",human recombinant MAO-A; [11],10332.7
same,MAO-A assay signal (luminescence),human recombinant MAO-A; [11],10318 and 10224 and 10456
same,"MAO-A assay signal (luminescence), Average",human recombinant MAO-A; [12],17850.7
same,MAO-A assay signal (luminescence),human recombinant MAO-A; [12],18126 and 17343 and 18083
same,"Transformed (reciprocal of MAO-A assay signal), Average","human recombinant MAO-A; UroB 2 µM, [1/S] 0.003125",5.602e-5
same,Transformed (reciprocal of MAO-A assay signal),"human recombinant MAO-A; UroB 2 µM, [1/S] 0.003125",5.517e-5 and 5.766e-5 and 5.53e-5
same,"Transformed (reciprocal of MAO-A assay signal), Average","human recombinant MAO-A; UroB 2 µM, [1/S] 0.00625",9.678e-5
same,Transformed (reciprocal of MAO-A assay signal),"human recombinant MAO-A; UroB 2 µM, [1/S] 0.00625",9.6918e-5 and 9.781e-5 and 9.564e-5
same,"Transformed (reciprocal of MAO-A assay signal), Average","human recombinant MAO-A; UroB 2 µM, [1/S] 0.0125",0.0001816
same,Transformed (reciprocal of MAO-A assay signal),"human recombinant MAO-A; UroB 2 µM, [1/S] 0.0125",0.0001776 and 0.0001821 and 0.0001854
same,"Transformed (reciprocal of MAO-A assay signal), Average","human recombinant MAO-A; UroB 2 µM, [1/S] 0.025",0.0003381
same,Transformed (reciprocal of MAO-A assay signal),"human recombinant MAO-A; UroB 2 µM, [1/S] 0.025",0.000327 and 0.0003479 and 0.0003401
same,"Transformed (reciprocal of MAO-A assay signal), Average","human recombinant MAO-A; UroB 2 µM, [1/S] 0.05",0.0006223
same,Transformed (reciprocal of MAO-A assay signal),"human recombinant MAO-A; UroB 2 µM, [1/S] 0.05",0.0006337 and 0.0006234 and 0.0006101
same,"Transformed (reciprocal of MAO-A assay signal), Average","human recombinant MAO-A; UroB 2 µM, [1/S] 0.1",0.001091
same,Transformed (reciprocal of MAO-A assay signal),"human recombinant MAO-A; UroB 2 µM, [1/S] 0.1",0.001036 and 0.001121 and 0.001119
same,"Michaelis-Menten best-fit Vmax of MAO-A, Average",human recombinant MAO-A; in presence of UroB 0.4 uM,65357.3
same,Michaelis-Menten best-fit Vmax of MAO-A,human recombinant MAO-A; in presence of UroB 0.4 uM,61114 and 67822 and 67136
same,"Michaelis-Menten best-fit Vmax of MAO-A, Average",human recombinant MAO-A; in presence of UroB 2 uM,66008.7
same,Michaelis-Menten best-fit Vmax of MAO-A,human recombinant MAO-A; in presence of UroB 2 uM,58741 and 70969 and 68316
same,Ki,human recombinant MAO-A; x-axis intercept of slopes of Lineweaver–Burk plots vs inhibitor concentration,2.3 µM
